Some test systems named below: A498; A549; CAKI-1; DU-145; HCT-116; IGROV-1; K562; KM12; MDA-MB-435; MOLT-4; Malme-3M; OVCAR-3; OVCAR-5; SF-295; SK-MEL-28; SNB-19; U-251; Hs-578T; SK-OV-3.
Holding throughout (assay): DTP human tumour cell line panel, 48 h

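Dose response: 5 concentrations. Exposure: 48 h. Format: 96-well plates. Endpoint: linear interpolation; highest concentration if not reached. GI50 marks 50% less growth.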 The source made the active and inactive calls. Rule as the data show it: active = GI50 up to about 1.1 µM and inactive = higher.

What is called GI50 is the concentration that inhibits growth by half. For the compound `Cc1cc(Cc2c(F)c(F)c(C(c3cc(C)no3)c3c(F)c(F)c(F)c(F)c3F)c(F)c2F)on1` (centres undefined), the GI50 is > 100 µM (inactive) in the experiment on A498; > 100 µM (inactive) with A549; > 72.8 µM (inactive) in the experiment on CAKI-1; > 100 µM (inactive) with DU-145; 18.3 µM (inactive) in the experiment with HCT-116; > 100 µM (inactive) in the experiment with IGROV-1. Also, the GI50 with K562 was 9.46 µM (inactive); in the experiment with KM12 it was 19.5 µM (inactive); in the experiment on MDA-MB-435, 3.04 µM (inactive); with MOLT-4, 17.1 µM (inactive); with Malme-3M, > 100 µM (inactive); in the experiment with OVCAR-3, > 27.4 µM (inactive). The GI50 in the experiment on OVCAR-5 is > 100 µM (inactive); with SF-295, 5.41 µM (inactive); with SK-MEL-28, > 38.8 µM (inactive); in the experiment on SNB-19, > 100 µM (inactive); in the experiment on U-251, 18.4 µM (inactive).

Turning to `Cc1cn(C2CC(OC(=O)c3ccc(Cl)cc3)C(COC(=O)c3ccc(Cl)cc3)O2)c(=O)[nH]c1=O` (centres undefined), the GI50 in the experiment with A549, in the experiment on CAKI-1, with DU-145, in the experiment with HCT-116, in the experiment with Hs-578T and in the experiment on IGROV-1 was > 100 µM (inactive) throughout. Moreover, the GI50 in the experiment with K562, in the experiment with KM12, in the experiment with MDA-MB-435, in the experiment with MOLT-4, in the experiment with Malme-3M and in the experiment with OVCAR-3 was > 100 µM (inactive) throughout. Besides, the GI50 in the experiment with OVCAR-5, in the experiment on SF-295, in the experiment with SK-MEL-28, in the experiment on SK-OV-3, with SNB-19 and in the experiment with U-251 was > 100 µM (inactive) throughout.

With `CCOC(=O)C#Cc1ccc(C#CC(=O)OCC)cc1`, the GI50 in the experiment on A498 is 14.2 µM (inactive); in the experiment on A549, 3.75 µM (inactive); with CAKI-1 it was 2.35 µM (inactive); with HCT-116, 1.7 µM (inactive); with Hs-578T, 3.15 µM (inactive); with IGROV-1, 1.72 µM (inactive). In addition, the GI50 with K562 was 2 µM (inactive); in the experiment on KM12, 2.76 µM (inactive); in the experiment with MDA-MB-435, 0.818 µM (active); in the experiment on MOLT-4, 1.02 µM (active); in the experiment on Malme-3M, 3.35 µM (inactive); in the experiment on OVCAR-3, 2.77 µM (inactive). The GI50 in the experiment with OVCAR-5 was 11.8 µM (inactive); in the experiment on SF-295 it was 13.5 µM (inactive); with SK-MEL-28 it was 2.84 µM (inactive); in the experiment with SK-OV-3 it was 9.84 µM (inactive); in the experiment with SNB-19, 5.02 µM (inactive); with U-251, 2.51 µM (inactive).

For `N#Cc1c2c(c(Nc3cccc(C(F)(F)F)c3)n3c1nc1ccccc13)CCCC2`, the GI50 with A498 is 26.8 µM (inactive); in the experiment with CAKI-1, 22.5 µM (inactive); in the experiment with DU-145 it was 21.3 µM (inactive); in the experiment on HCT-116, 22.3 µM (inactive); in the experiment with KM12, 81.3 µM (inactive); in the experiment with MDA-MB-435, 28.4 µM (inactive). Also, the GI50 in the experiment with MOLT-4 is 15.2 µM (inactive); in the experiment with Malme-3M, 21.3 µM (inactive); in the experiment with OVCAR-3, 14.6 µM (inactive); with OVCAR-5, 18.9 µM (inactive); in the experiment with SF-295, 21.8 µM (inactive); in the experiment on SK-MEL-28, 18.2 µM (inactive). The GI50 with SK-OV-3 was 17.1 µM (inactive); with U-251, 11.5 µM (inactive).

For the compound `NC(=O)CC1OC(=O)Cc2cc3c(c(O)c21)C(=O)c1c(O)cccc1C3=O` (centres undefined), the GI50 in the experiment on A498 was 43.9 µM (inactive); in the experiment with A549, > 100 µM (inactive); with CAKI-1, > 100 µM (inactive); in the experiment on DU-145 it was > 100 µM (inactive); in the experiment on HCT-116, > 100 µM (inactive); in the experiment on IGROV-1, 69.3 µM (inactive). The GI50 in the experiment with K562 was 39.5 µM (inactive); with MDA-MB-435, > 100 µM (inactive); in the experiment on MOLT-4, 71.3 µM (inactive); in the experiment with Malme-3M, > 100 µM (inactive); with OVCAR-5, > 100 µM (inactive); in the experiment with SF-295, > 100 µM (inactive). Besides, the GI50 in the experiment with SK-MEL-28, in the experiment with SK-OV-3, in the experiment with SNB-19 and with U-251 was > 100 µM (inactive) in each case.

As to `O=Cc1c2c(cc3c1CC1(C3)Cc3cc4c(c(C=O)c3C1)CCC4)CCC2`, the GI50 in the experiment on A498 was 30.7 µM (inactive); in the experiment with A549, 30.3 µM (inactive); in the experiment on HCT-116, 14.7 µM (inactive); in the experiment with Hs-578T, 23.1 µM (inactive); in the experiment with IGROV-1 it was 17 µM (inactive); in the experiment with K562, 14.4 µM (inactive). In addition, the GI50 was 45.6 µM (inactive) with MDA-MB-435; 11.3 µM (inactive) in the experiment on MOLT-4; 27.5 µM (inactive) in the experiment on Malme-3M; 24.1 µM (inactive) with OVCAR-3; > 100 µM (inactive) with OVCAR-5; 59.3 µM (inactive) in the experiment with SF-295. Further, the values for the GI50 with SK-OV-3 and in the experiment with U-251 were 36.1 µM (inactive) and 16.3 µM (inactive), respectively.

With `CN(C)C(=O)N1N[C@H](c2ccccc2)[C@@H]1c1ccccc1`, the GI50 in the experiment with A498, in the experiment with A549, with CAKI-1, in the experiment on DU-145, with HCT-116 and with IGROV-1 was > 100 µM (inactive) each time. In addition, the GI50 in the experiment on K562, with KM12, in the experiment with MDA-MB-435, with MOLT-4, with Malme-3M and with OVCAR-3 was > 100 µM (inactive) throughout. For the same compound, the GI50 with SF-295 is 72.3 µM (inactive); with SK-MEL-28, > 100 µM (inactive); with SK-OV-3, > 100 µM (inactive); in the experiment with SNB-19, > 100 µM (inactive); in the experiment with U-251, > 100 µM (inactive).

Take `Cc1c(N/C=C(\C#N)C(=O)c2ccc(Cl)cc2)c(=O)n(-c2ccccc2)n1C`: the GI50 was 48.8 µM (inactive) in the experiment on A498; > 100 µM (inactive) with A549; > 100 µM (inactive) in the experiment with CAKI-1; > 100 µM (inactive) in the experiment on DU-145; 80.7 µM (inactive) in the experiment with HCT-116; 96.8 µM (inactive) in the experiment on IGROV-1. The GI50 is 97.9 µM (inactive) with K562; > 100 µM (inactive) in the experiment with KM12; 34.9 µM (inactive) with MDA-MB-435; > 100 µM (inactive) with Malme-3M; 72.1 µM (inactive) in the experiment with OVCAR-3; > 100 µM (inactive) in the experiment on OVCAR-5. Moreover, the GI50 in the experiment on SF-295, in the experiment on SK-MEL-28, with SK-OV-3, in the experiment on SNB-19 and in the experiment with U-251 was > 100 µM (inactive) in each case.

Turning to `N#Cc1c2ccc([N+](=O)[O-])cc2c(=O)n2c1sc1ccc(C(F)(F)F)cc12`, the GI50 in the experiment on A498, with A549, with CAKI-1, in the experiment on DU-145, in the experiment with HCT-116 and in the experiment with IGROV-1 was > 100 µM (inactive) throughout. Besides, the GI50 with K562, in the experiment on KM12, in the experiment on MDA-MB-435, in the experiment with MOLT-4, in the experiment with Malme-3M and in the experiment on OVCAR-3 was > 100 µM (inactive) in each case. In addition, the GI50 in the experiment on OVCAR-5, with SF-295, in the experiment on SK-MEL-28, with SK-OV-3, in the experiment on SNB-19 and in the experiment with U-251 was > 100 µM (inactive) in each case.

(Values after ChEMBL document CHEMBL1201862, “PubChem BioAssay data set” (2004).)
